Experimental data taken from PubChem BioAssay AID2060912 (Molecular Pharmacology Branch, DTP, NCI, 2025).

Test system: HUVEC/MSC spheroids viability
Test: Human HUVEC/MSC cell line growth inhibition [KRAS2];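 for viability, T/C: percent of DMSO vehicle control luminescence so 100% = untreated viability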
Details: for IC50: curve of first compound; for viability, T/C: stronger effect = lower value
Procedure, shortened: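 The concentration series started at or near clinical Cmax (10 microM if not known) and fell in half-log increments, alone or in combination. Cells were stromal-only spheroids of pooled-donor HUVEC and hMSC (passage </=5), with different drug plates and layout from the tumor spheroid screens.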

[1] = second compound 0.0316 µM, first compound 0.0316 µM
[2] = second compound 0.0316 µM, first compound 0.1 µM
[3] = second compound 0.0316 µM, first compound 0.316 µM
[4] = second compound 0.0316 µM, first compound 1 µM
[5] = second compound 0.0316 µM, first compound 3.16 µM
[6] = second compound 0.0316 µM, first compound 10 µM
[7] = second compound 0.1 µM, first compound 0.0316 µM
[8] = second compound 0.1 µM, first compound 0.1 µM
[9] = second compound 0.1 µM, first compound 0.316 µM
[10] = second compound 0.1 µM, first compound 1 µM
[11] = second compound 0.1 µM, first compound 3.16 µM
[12] = second compound 0.1 µM, first compound 10 µM
[13] = second compound 0.316 µM, first compound 0.0316 µM
[14] = second compound 0.316 µM, first compound 0.1 µM
[15] = second compound 0.316 µM, first compound 0.316 µM
[16] = second compound 0.316 µM, first compound 1 µM
[17] = second compound 0.316 µM, first compound 3.16 µM
[18] = second compound 0.316 µM, first compound 10 µM
[19] = second compound 1 µM, first compound 0.0316 µM
[20] = second compound 1 µM, first compound 0.1 µM
[21] = second compound 1 µM, first compound 0.316 µM
[22] = second compound 1 µM, first compound 1 µM
[23] = second compound 1 µM, first compound 3.16 µM
[24] = second compound 1 µM, first compound 10 µM
[25] = second compound 3.16 µM, first compound 0.0316 µM
[26] = second compound 3.16 µM, first compound 0.1 µM
[27] = second compound 3.16 µM, first compound 0.316 µM
[28] = second compound 3.16 µM, first compound 1 µM
[29] = second compound 3.16 µM, first compound 3.16 µM
[30] = second compound 3.16 µM, first compound 10 µM
[31] = second compound 10 µM, first compound 0.0316 µM
[32] = second compound 10 µM, first compound 0.1 µM
[33] = second compound 10 µM, first compound 0.316 µM
[34] = second compound 10 µM, first compound 1 µM
[35] = second compound 10 µM, first compound 3.16 µM
[36] = second compound 10 µM, first compound 10 µM

## CC(=O)Nc1cccc(-n2c(=O)n(C3CC3)c(=O)c3c(Nc4ccc(I)cc4F)n(C)c(=O)c(C)c32)c1 + COc1cc2nc(C)nc(NC(C)c3cc(N)cc(C(F)(F)F)c3)c2cc1OC1CCOC1
Second compound 0.0316 µM
  IC50: 0.0153 µM
Second compound 0.1 µM
  IC50: 0.0152 µM
Second compound 0.316 µM
  IC50: 0.0131 µM
Second compound 1 µM
  IC50: 0.013 µM
Second compound 3.16 µM
  IC50: 0.0144 µM
Second compound 10 µM
  IC50: 0.0104 µM
Second compound 0.0316 µM, first compound 94.9 pM
  viability, T/C: 126%
Second compound 0.0316 µM, first compound 0.0003 µM
  viability, T/C: 124%
Second compound 0.0316 µM, first compound 0.000949 µM
  viability, T/C: 105%
Second compound 0.0316 µM, first compound 0.003 µM
  viability, T/C: 92.6%
Second compound 0.0316 µM, first compound 0.00949 µM
  viability, T/C: 78.8%
Second compound 0.0316 µM, first compound 0.03 µM
  viability, T/C: 18.3%
Second compound 0.1 µM, first compound 94.9 pM
  viability, T/C: 105%
Second compound 0.1 µM, first compound 0.0003 µM
  viability, T/C: 129%
Second compound 0.1 µM, first compound 0.000949 µM
  viability, T/C: 129%
Second compound 0.1 µM, first compound 0.003 µM
  viability, T/C: 74.2%
Second compound 0.1 µM, first compound 0.00949 µM
  viability, T/C: 80.2%
Second compound 0.1 µM, first compound 0.03 µM
  viability, T/C: 18.6%
Second compound 0.316 µM, first compound 94.9 pM
  viability, T/C: 103%
Second compound 0.316 µM, first compound 0.0003 µM
  viability, T/C: 134%
Second compound 0.316 µM, first compound 0.000949 µM
  viability, T/C: 115%
Second compound 0.316 µM, first compound 0.003 µM
  viability, T/C: 82.6%
Second compound 0.316 µM, first compound 0.00949 µM
  viability, T/C: 68.8%
Second compound 0.316 µM, first compound 0.03 µM
  viability, T/C: 14.6%
Second compound 1 µM, first compound 94.9 pM
  viability, T/C: 108%
Second compound 1 µM, first compound 0.0003 µM
  viability, T/C: 125%
Second compound 1 µM, first compound 0.000949 µM
  viability, T/C: 91.4%
Second compound 1 µM, first compound 0.003 µM
  viability, T/C: 76.7%
Second compound 1 µM, first compound 0.00949 µM
  viability, T/C: 73.2%
Second compound 1 µM, first compound 0.03 µM
  viability, T/C: 15.2%
Second compound 3.16 µM, first compound 94.9 pM
  viability, T/C: 91%
Second compound 3.16 µM, first compound 0.0003 µM
  viability, T/C: 104%
Second compound 3.16 µM, first compound 0.000949 µM
  viability, T/C: 113%
Second compound 3.16 µM, first compound 0.003 µM
  viability, T/C: 68.8%
Second compound 3.16 µM, first compound 0.00949 µM
  viability, T/C: 76.4%
Second compound 3.16 µM, first compound 0.03 µM
  viability, T/C: 15.9%
Second compound 10 µM, first compound 94.9 pM
  viability, T/C: 83%
Second compound 10 µM, first compound 0.0003 µM
  viability, T/C: 99%
Second compound 10 µM, first compound 0.000949 µM
  viability, T/C: 97%
Second compound 10 µM, first compound 0.003 µM
  viability, T/C: 59.6%
Second compound 10 µM, first compound 0.00949 µM
  viability, T/C: 60.4%
Second compound 10 µM, first compound 0.03 µM
  viability, T/C: 5.88%

## COc1cc(Nc2ncc3c(n2)-c2ccc(Cl)cc2C(c2c(F)cccc2OC)=NC3)ccc1C(=O)O + COc1cc2nc(C)nc(NC(C)c3cc(N)cc(C(F)(F)F)c3)c2cc1OC1CCOC1
Second compound 0.0316 µM
  IC50: > 10 µM
Second compound 0.1 µM
  IC50: > 10 µM
Second compound 0.316 µM
  IC50: 9.25 µM
Second compound 1 µM
  IC50: > 10 µM
Second compound 3.16 µM
  IC50: 9.65 µM
Second compound 10 µM
  IC50: 8.57 µM
[1]
  viability, T/C: 79.5%
[2]
  viability, T/C: 94.3%
[3]
  viability, T/C: 109%
[4]
  viability, T/C: 82.5%
[5]
  viability, T/C: 111%
[6]
  viability, T/C: 61.6%
[7]
  viability, T/C: 95.5%
[8]
  viability, T/C: 89.7%
[9]
  viability, T/C: 105%
[10]
  viability, T/C: 85.8%
[11]
  viability, T/C: 97%
[12]
  viability, T/C: 58.8%
[13]
  viability, T/C: 87.8%
[14]
  viability, T/C: 97.1%
[15]
  viability, T/C: 92.5%
[16]
  viability, T/C: 105%
[17]
  viability, T/C: 104%
[18]
  viability, T/C: 46.5%
[19]
  viability, T/C: 86.9%
[20]
  viability, T/C: 89.5%
[21]
  viability, T/C: 96.8%
[22]
  viability, T/C: 106%
[23]
  viability, T/C: 107%
[24]
  viability, T/C: 52.7%
[25]
  viability, T/C: 77.4%
[26]
  viability, T/C: 94.8%
[27]
  viability, T/C: 102%
[28]
  viability, T/C: 77%
[29]
  viability, T/C: 102%
[30]
  viability, T/C: 48.7%
[31]
  viability, T/C: 62.5%
[32]
  viability, T/C: 85.8%
[33]
  viability, T/C: 72.5%
[34]
  viability, T/C: 84.9%
[35]
  viability, T/C: 74.9%
[36]
  viability, T/C: 46.1%

## COc1cc2nccc(Oc3ccc(NC(=O)C4(C(=O)Nc5ccc(F)cc5)CC4)cc3)c2cc1OC + COc1cc2nc(C)nc(NC(C)c3cc(N)cc(C(F)(F)F)c3)c2cc1OC1CCOC1
Second compound 0.0316 µM
  IC50: 6.12 µM
Second compound 0.1 µM
  IC50: 4.19 µM
Second compound 0.316 µM
  IC50: 5.33 µM
Second compound 1 µM
  IC50: 5.1 µM
Second compound 3.16 µM
  IC50: 4.26 µM
Second compound 10 µM
  IC50: 1.87 µM
[1]
  viability, T/C: 73.8%
[2]
  viability, T/C: 75.2%
[3]
  viability, T/C: 66.8%
[4]
  viability, T/C: 80.3%
[5]
  viability, T/C: 73.5%
[6]
  viability, T/C: 32.5%
[7]
  viability, T/C: 74.7%
[8]
  viability, T/C: 77%
[9]
  viability, T/C: 68%
[10]
  viability, T/C: 64.8%
[11]
  viability, T/C: 63.4%
[12]
  viability, T/C: 15.9%
[13]
  viability, T/C: 66.1%
[14]
  viability, T/C: 68.5%
[15]
  viability, T/C: 60.8%
[16]
  viability, T/C: 78.2%
[17]
  viability, T/C: 87.7%
[18]
  viability, T/C: 23.3%
[19]
  viability, T/C: 61.6%
[20]
  viability, T/C: 69%
[21]
  viability, T/C: 58.1%
[22]
  viability, T/C: 85.2%
[23]
  viability, T/C: 79.4%
[24]
  viability, T/C: 21.1%
[25]
  viability, T/C: 60.6%
[26]
  viability, T/C: 67.2%
[27]
  viability, T/C: 60.9%
[28]
  viability, T/C: 76.5%
[29]
  viability, T/C: 66.9%
[30]
  viability, T/C: 3.26%
[31]
  viability, T/C: 56.9%
[32]
  viability, T/C: 57.8%
[33]
  viability, T/C: 73.3%
[34]
  viability, T/C: 82.5%
[35]
  viability, T/C: 35.1%
[36]
  viability, T/C: 0.26%
